Assays:
[1] = tested on: cellular ROCK activity (cofilin phosphorylation at Ser3) in A7r5 rat smooth muscle cells; assay: Cellular ROCK activity: cofilin (Ser3) phosphorylation, In-Cell Western assay; format: cell-based; conditions: Rattus norvegicus, A7R5, 1 h, 1 hour compound incubation, phospho-cofilin (Ser3), read-out: CELL_IC50
Protocol: The potency of Rho-associated protein kinase (ROCK) inhibitors was quantified by measuring cofilin phosphorylation levels at Serine 3 (Ser3) as a measure of cellular ROCK activity by In-Cell Western assay. […] The assay plate was imaged and quantified on the Odyssey imager (LICOR Biosciences).
ROCK inhibitor compound plate preparation. […] Stock compounds and control are added directly to ECHO plate (Labcyte) by Janus.
A7r5 cell culture and plating. A7r5 cells were cultured according to standard cell culture protocols in A7r5 growth media (DMEM with Glutamax and 10% FBS). […] 45 μl of re-suspended A7r5 cells were plated at 3000 cells/well in a sterile, μclear, black, F-bottom, 384-well microplate (Greiner bio-one). Seeded cells allowed to settle in wells on the bench for 1 hour before incubation at 37° C., 5% CO2 overnight.
Assay reagent and antibody preparations. Wash buffer was prepared by addition of Tween-20 to Dulbecco's Phosphate Buffered Saline (DPBS) (1×) without calcium and magnesium to make 1% Tween-20 as final concentration. Blocking buffer was prepared by addition of TritonX-100 to SeaBlock buffer (ThermoFisher) to make 0.3% TritonX-100 as final concentration. […] Secondary antibody mix was prepared by diluting donkey anti-rabbit 800CW antibody (LICOR Biosciences) 1:1000 in SeaBlock buffer.
Assay procedure. Compound plate was diluted by addition of 19 μl/well compound dilution buffer (DMEM with Glutamax) using 125 μl 16-channel Matrix electronic pipette. 5 μl diluted compound was stamped from compound plate to assay plate containing A7r5 cells using Bravo (384-well head from Agilent) liquid handler and incubated at 37° C., 5% CO2 for 1 hour. Cells were fixed by addition of 5 μl 37% formaldehyde using 125 μl 16-channel Matrix electronic pipette and incubation for 20 min at room temperature. The assay plate was washed 5× with 60 μl/well wash buffer. […] Next, the assay plate was sealed, centrifuged at 1000 rpm for 5 seconds and incubated at 4° C. overnight on an orbital shaker at 300 rpm. […] The assay plate was centrifuged at 1000 rpm for 5 seconds and incubated on an orbital shaker at 300 rpm for 60 min at room temperature. Finally, assay plate was washed and wells left empty before measurement of 700 nm and 800 nm fluorescence intensities on Odyssey imager set at 4.0 mm focus offset.

[2] = target: human catalytic domain ROCK II protein (amino acids 5-554) with a N-terminal GST tag (Homo sapiens, UniProt O75116); assay: biochemical
Sequence of human catalytic domain ROCK II protein (amino acids 5-554) with a N-terminal GST tag (O75116 5-554): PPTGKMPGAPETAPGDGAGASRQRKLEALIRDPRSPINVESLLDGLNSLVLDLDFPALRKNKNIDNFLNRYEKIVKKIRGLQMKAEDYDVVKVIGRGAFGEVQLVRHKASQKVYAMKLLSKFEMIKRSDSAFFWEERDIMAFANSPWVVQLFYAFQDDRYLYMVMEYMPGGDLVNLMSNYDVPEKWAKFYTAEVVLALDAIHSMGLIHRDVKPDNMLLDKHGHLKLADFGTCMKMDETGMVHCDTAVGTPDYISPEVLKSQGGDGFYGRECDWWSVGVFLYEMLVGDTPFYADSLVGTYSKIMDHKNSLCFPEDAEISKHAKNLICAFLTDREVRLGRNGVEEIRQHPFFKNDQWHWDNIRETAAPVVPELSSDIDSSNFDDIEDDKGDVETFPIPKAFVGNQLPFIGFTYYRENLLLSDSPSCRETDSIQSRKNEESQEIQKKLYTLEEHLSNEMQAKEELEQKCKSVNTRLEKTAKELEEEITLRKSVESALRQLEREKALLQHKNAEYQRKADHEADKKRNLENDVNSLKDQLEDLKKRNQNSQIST
Protocol: The potency of Rho-associated protein kinase (ROCK) II inhibitors was quantified by measuring ROCKII kinase domain enzymatic activity using ADP-Glo™ Kinase Assay format. […] ADP-Glo™ Reagent was added that terminates ROCKII reaction and depletes remaining ATP. Kinase Detection Reagent was added to convert ADP to ATP and allow newly synthesized ATP to be measured using luciferase/luciferin reaction. The light generated correlates to the amount of ADP generated in the ROCKII biochemical reaction, which is indicative of ROCKII activity.
ROCK inhibitor compound plate preparation. Lyophilized ROCK inhibitors were re-suspended to a final concentration of 10 mM in 100% dimethyl sulfoxide (DMSO) and control reference compound, Fasudil HCl, to a final concentration of 100 mM in 100% DMSO using Janus automated liquid handler workstation (Perkin Elmer) and were stored at room temperature under nitrogen. Stock compounds and controls were added directly to ECHO plate (Labcyte) by Janus. The Echo 555 liquid handler (Labcyte) dispensed duplicate 10-point concentration-response curves for each compound directly into 384-well, black, U-bottom assay plate (Matrix Technologies Ltd) at 100× final assay concentration. Final compound or control volume per well is 100 nl (0.1 μl). Assay standards were prepared by Echo dispensing 5 nl of 100 mM Fasudil HCl and 95 nl DMSO for full inhibition control (50 μM final assay concentration and 1% DMSO) and 100 nl of DMSO for full activity control (1% DMSO).
The ROCKII catalytic domain enzyme was human catalytic domain ROCK II protein (amino acids 5-554) with a N-terminal GST tag (SignalChem).
Preparation of S6K peptide substrate (20 μM) and ATP (10 μM). The S6K peptide sequence (amino acid sequence [sequence]) was based on human 40 S ribosomal protein S6 (amino acids 230-238) (SignalChem). […]
Assay procedure. […] The assay plate was further incubated in a polystyrene box for 30 min at room temperature without the seal and luminescence signal was measured using EnVision (Perkin Elmer) in top read mode.

IC50 [1] | IC50 [2] | Structure (SMILES)
356 nM | – | Cc1cc2c([C@@H](C)NC(=O)N3CCN(c4ccnc(F)c4)C[C@H]3C)cccc2o1 [Example 4, (R)-4-(2-Fluoropyridin-4-yl)-2-methyl-N—((R)-1-(2-methylbenzofuran-4-yl)ethyl)piperazine-1-carboxamide]
– | 864 nM | C[C@@H]1CN(c2ccnc(F)c2)CCN1C(=O)NCc1cccc2c1OC(F)(F)O2 [Example 5, (R)—N-((2,2-Difluorobenzo[d][1,3]dioxol-4-yl)methyl)-4-(2-fluoropyridin-4-yl)-2-methylpiperazine-1-carboxamide]
– | 117 nM | C[C@@H]1CN(c2ccnc(F)c2)CCN1C(=O)NCc1cccc2c1OCO2 [Example 6, (R)—N-(Benzo[d][1,3]dioxol-4-ylmethyl)-4-(2-fluoropyridin-4-yl)-2-methylpiperazine-1-carboxamide]
≥ 5000 nM | – | Cc1cnc2cccc([C@H](C)NC(=O)N3CCN(c4ccnc(F)c4)C[C@H]3C)n12 [Example 10, (R)-4-(2-Fluoropyridin-4-yl)-2-methyl-N—((S)-1-(3-methylimidazo[1,2-a]pyridin-5-yl)ethyl)piperazine-1-carboxamide]
– | 3410 nM | C[C@@H]1CN(C(=O)N[C@H](C)c2ccc(F)cc2Cl)CCN1c1ccnc(F)c1 [Example 14, (R)—N—((R)-1-(2-Chloro-4-fluorophenyl)ethyl)-4-(2-fluoropyridin-4-yl)-3-methylpiperazine-1-carboxamide]
1470 nM | – | C[C@@H](NC(=O)N1CCN(c2ccncc2F)CC1)c1ccccc1Br [Example 19, (R)—N-(1-(2-Bromophenyl)ethyl)-4-(3-fluoropyridin-4-yl)piperazine-1-carboxamide]
1780 nM | – | C[C@@H](NC(=O)N1CCN(c2ccncc2F)CC1)c1ccc(F)cc1Cl [Example 21, (R)—N-(1-(2-Chloro-4-fluorophenyl)ethyl)-4-(3-fluoropyridin-4-yl)piperazine-1-carboxamide]
410 nM | – | C[C@@H](NC(=O)N1CCN(c2ccncc2F)CC1)c1cccc2ccn(C)c12 [Example 32, (R)-4-(3-fluoropyridin-4-yl)-N-(1-(1-methyl-1H-indol-7-yl)ethyl)piperazine-1-carboxamide]
761 nM | – | O=C(NCc1cccc2occc12)N1CCN(c2ccncc2F)CC1 [Example 38, N-(Benzofuran-4-ylmethyl)-4-(3-fluoropyridin-4-yl)piperazine-1-carboxamide]
73 nM | – | C[C@@H]1CN(c2ccncc2F)CCN1C(=O)N[C@H](C)c1ccccc1Cl [Example 42, (R)—N—((R)-1-(2-Chlorophenyl)ethyl)-4-(3-fluoropyridin-4-yl)-2-methylpiperazine-1-carboxamide]
125 nM | – | C[C@@H]1CN(c2ccncc2F)CCN1C(=O)N[C@H](C)c1ccccc1Br [Example 45, (R)—N—((R)-1-(2-Bromophenyl)ethyl)-4-(3-fluoropyridin-4-yl)-2-methylpiperazine-1-carboxamide]
131 nM | – | C[C@@H]1CN(c2ccncc2F)CCN1C(=O)N[C@H](C)c1cccc(F)c1Cl [Example 47, (R)—N—((R)-1-(2-Chloro-3-fluorophenyl)ethyl)-4-(3-fluoropyridin-4-yl)-2-methylpiperazine-1-carboxamide]
279 nM | – | C[C@H](NC(=O)N1CCN(c2ccncc2F)C[C@H]1C)c1cccc(F)c1Cl [Example 48, (R)—N—((S)-1-(2-chloro-3-fluorophenyl)ethyl)-4-(3-fluoropyridin-4-yl)-2-methylpiperazine-1-carboxamide]
164 nM | – | COc1ccc(Cl)c([C@@H](C)NC(=O)N2CCN(c3ccncc3F)C[C@H]2C)c1 [Example 49, (R)—N—((R)-1-(2-Chloro-5-methoxyphenyl)ethyl)-4-(3-fluoropyridin-4-yl)-2-methylpiperazine-1-carboxamide]
15.2 nM | – | COc1cc(F)cc([C@@H](C)NC(=O)N2CCN(c3ccncc3F)C[C@H]2C)c1 [Example 51, (R)—N—((R)-1-(3-Fluoro-5-methoxyphenyl)ethyl)-4-(3-fluoropyridin-4-yl)-2-methylpiperazine-1-carboxamide]
234 nM | – | C[C@@H]1CN(c2ccncc2F)CCN1C(=O)N[C@H](C)c1cccnc1 [Example 52, (R)-4-(3-Fluoropyridin-4-yl)-2-methyl-N—((R)-1-(pyridin-3-yl)ethyl)piperazine-1-carboxamide]
17.6 nM | – | C[C@@H]1CN(c2ccncc2F)CCN1C(=O)N[C@H](C)c1cccc2nccn12 [Example 58, (R)-4-(3-fluoropyridin-4-yl)-N—((R)-1-(imidazo[1,2-a]pyridin-5-yl)ethyl)-2-methylpiperazine-1-carboxamide]
33.1 nM | – | Cc1cc2c([C@@H](C)NC(=O)N3CCN(c4ccncc4F)C[C@H]3C)cccc2o1 [Example 60, (R)-4-(3-Fluoropyridin-4-yl)-2-methyl-N—((R)-1-(2-methylbenzofuran-4-yl)ethyl)piperazine-1-carboxamide]
44.2 nM | – | C[C@@H]1CN(c2ccncc2F)CCN1C(=O)N[C@H](C)c1cccc2ccn(C)c12 [Example 63, (R)-4-(3-Fluoropyridin-4-yl)-2-methyl-N—((R)-1-(1-methyl-1H-indol-7-yl)ethyl)piperazine-1-carboxamide]

IC50 [1] | IC50 [2] | Structure (SMILES)
104 nM | – | Cc1nc2c([C@@H](C)NC(=O)N3CCN(c4ccncc4F)C[C@H]3C)cccc2o1 [Example 69, (R)-4-(3-Fluoropyridin-4-yl)-2-methyl-N—((R)-1-(2-methylbenzo[d]oxazol-4-yl)ethyl)piperazine-1-carboxamide]
3000 nM | – | Cc1nc2c([C@H](C)NC(=O)N3CCN(c4ccncc4F)C[C@H]3C)cccc2o1 [Example 70, (R)-4-(3-Fluoropyridin-4-yl)-2-methyl-N—((S)-1-(2-methylbenzo[d]oxazol-4-yl)ethyl)piperazine-1-carboxamide]
150 nM | – | C[C@@H]1CN(c2ccncc2F)CCN1C(=O)NCc1cccc2c1OCO2 [Example 75, (R)—N-(Benzo[d][1,3]dioxol-4-ylmethyl)-4-(3-fluoropyridin-4-yl)-2-methylpiperazine-1-carboxamide]
86.1 nM | – | C[C@@H]1CN(c2ccncc2F)CCN1C(=O)NCc1cccc2occc12 [Example 76, (R)—N-(Benzofuran-4-ylmethyl)-4-(3-fluoropyridin-4-yl)-2-methylpiperazine-1-carboxamide]
2010 nM | – | C[C@@H]1CN(c2ccncc2F)CCN1C(=O)NCc1cccc2c1cnn2C [Example 79, (R)-4-(3-Fluoropyridin-4-yl)-2-methyl-N-((1-methyl-1H-indazol-4-yl)methyl)piperazine-1-carboxamide]
75.5 nM | – | C[C@@H]1CN(c2ccncc2F)CCN1C(=O)NCc1cccc2ncccc12 [Example 80, (R)-4-(3-Fluoropyridin-4-yl)-2-methyl-N-(quinolin-5-ylmethyl)piperazine-1-carboxamide]
31.4 nM | – | CC[C@@H]1CN(c2ccncc2F)CCN1C(=O)N[C@H](C)c1cccc(OC)c1 [Example 83, (R)-2-Ethyl-4-(3-fluoropyridin-4-yl)-N—((R)-1-(3-methoxyphenyl)ethyl)piperazine-1-carboxamide]
871 nM | – | COc1cccc([C@@H](C)NC(=O)N2CCN(c3ccnc(F)c3)CC2)c1 [Example 101]
198 nM | – | C[C@@H](NC(=O)N1CCN(c2ccnc(F)c2)CC1)c1cccc2c1CCO2 [Example 102]
830 nM | – | C[C@@H](NC(=O)N1CCN(c2ccnc(F)c2)CC1)c1cccc2occc12 [Example 104]
638 nM | – | C[C@@H]1CN(c2ccnc(F)c2)CCN1C(=O)N[C@H](C)c1cccc(OC(F)F)c1 [Example 108]
1090 nM | – | C[C@@H]1CN(c2ccnc(F)c2)CCN1C(=O)N[C@H](C)c1ccccc1Cl [Example 109]
107 nM | – | COc1cccc([C@@H](C)NC(=O)N2CCN(c3ccnc(F)c3)[C@@H](C)C2)c1 [Example 117]
163 nM | – | COc1cc(F)cc([C@@H](C)NC(=O)N2CCN(c3ccncc3F)CC2)c1 [Example 128]
1040 nM | – | COc1cccc([C@@H](C)NC(=O)N2CCN(c3ccncc3F)C[C@H]2C)c1Cl [Example 135]
2620 nM | – | COc1cccc([C@H](C)NC(=O)N2CCN(c3ccncc3F)C[C@H]2C)c1Cl [Example 140]
71.6 nM | – | C[C@@H](NC(=O)N1CCN(c2ccncc2F)[C@@H](C)C1)c1cccc2occc12 [Example 148]
2740 nM | – | C[C@H]1CN(C(=O)NCc2cccc(OC(F)F)c2)CCN1c1ccncc1F [Example 149]
4.9 nM | – | C[C@@H]1CN(c2c(F)cncc2F)CCN1C(=O)N[C@H](C)c1cccc2c1CCO2 [Example 156]
